Measured values taken from patent publication US9464113B2, “Anti-heparan sulfate peptides that block herpes simplex virus infection in vivo” (The Board of Trustees of the University of Illinois, priority 2010, dated 2016).
No end group written: not given here.

Assays:
[1] = test system: β-galactosidase expressing CMV; test: CMV entry assay in RPE cells; type: cell-based, cytomegalovirus; details: 0.5 mM, 60 min pre-treatment, 8 h, ONPG and X-gal
Description: Natural target RPE cells were incubated with G1 and G2 peptides for 60 min at room temperature before the cells were infected with β-galactosidase expressing CMV (ATCC) for 8 h. β-galactosidase assays were performed using either a soluble substrate o-nitrophenyl-β-D-galactopyranoside (ONPG at 3.0 mg/ml; ImmunoPure, Pierce) or X-gal (Sigma).
In order to detect each peptide's effect on viral entry, Lac Z-expressing reporter CMV and GFP-expressing HHV-8 viruses (Viera et al., J. Virol. 72:5182-5188 (2000)) and their natural target cells were employed for entry measurements. […] A monolayer of cultured RPE cells grown in a 96 well plate were pre-treated with G1, G2, or control peptide (Cp) at 0.5 mM concentration (FIG. 5A). A mock-treated population of RPE cells served as positive control (abbreviated as C). After 60 min of incubation at room temperature, the cells were infected with β-galactosidase expressing CMV reporter virus. After 8 h, viral entry was measured as described for FIG. 1.
The effect of CMV entry blocking activity of G1, G2 or Cp peptide for individual RPE cells was determined by X-gal staining, which yields an insoluble blue product upon hydrolysis by β-galactosidase (FIG. 5B). Individual cells were examined using a Zeiss Axiovert 100 microscope at 20× magnification. Infected cells turn blue. […]

HSV-1(K26GFP) = HSV-1(K26GFP) replication in human CF (GFP fluorescence over time); type: cell-based, herpes simplex virus type-1; details: 0-36 h post-infection (FIG. 6D)
Description: GFP-expressing HSV-1(K26GFP) intensity as a surrogate for virus binding was quantified in presence G2 or control peptide (abbreviated as C) by flow cytometry (FIG. 6C). The cell/virus incubation was performed as described above. G2 peptides block HSV-1 replication into cultured human corneal fibroblasts (CF) (FIG. 6D). Cultured CF were pre-incubated with G2 or mock-treated (Cp) before infection with HSV-1(K26GFP) virus for 6 h. Viral replications in CF were quantified 0-36 h post-infection by measuring GFP fluorescent intensity using a fluorescence reader (Tecan). The data shown are the means of triplicate measures and are representative of three independent experiments. Asterisks indicate significant difference from other treatments (P<0.01, t test), error bars represent standard deviation (SD).
To further confirm that blocking of viral attachment results in a reduction of viral replication, GFP fluorescence was measured as a function of time (K26GFP) (Desai and Person J. Virol. 72:7563-7568 (1998)) in both G2- and mock-treated cells.

[2] = test system: HSV-1 glycoproteins (gB, gD, gH-gL) induced membrane fusion; test: HSV-1 glycoprotein induced cell-to-cell fusion assay, 3-OST-3-expressing CHO-K1 target cells; type: cell-based, herpes simplex virus type-1
Excerpt: CHO-K1 “effector” cells (grown in F-12 Ham, Invitrogen) were co-transfected with plasmids expressing four HSV-1(KOS) glycoproteins: pPEP98 (gB), pPEP99 (gD), pPEP100 (gH), and pPEP101 (gL), along with the plasmid pT7EMCLuc that expresses firefly luciferase gene under transcriptional control of the T7 promoter. Pertel et al., Virology 279:313-324 (2001). Wild-type CHO-K1 cells, which express cell-surface HS but lack functional gD receptors, were transiently transfected with HSV-1 entry receptors. Wild-type CHO-K1 cultured cells expressing HSV-1 entry receptors or naturally susceptible cells (human CF) considered as “target cells” were co-transfected with pCAGT7 that expresses T7 RNA polymerase using chicken actin promoter and CMV enhancer. Tiwari et al., FEBS Letters 581:4468-4472 (2007). Untreated effector cells expressing pT7EMCLuc and HSV-1 essential glycoproteins, and target cells expressing gD receptors transfected with T7 RNA polymerase, were used as positive controls. […]
Control effector cells (T7 polymerase and gD, gH-gL only) (−) were also pre-incubated with G2 for the same duration. […] Membrane fusion as a surrogate for viral spread was detected by monitoring luciferase activity (FIGS. 7A and 7C). Relative luciferase units (RLUs) were determined using a Sirius luminometer (Berthold detection systems). […]

| Sequence | blocking of CMV entry [1] | viral replication (GFP intensity over time) (HSV-1(K26GFP)) | blocking of membrane fusion (luciferase activity) ([2]; 3-OST-3-expressing CHO-K1 cells (FIG. 7C)) | syncytia (polykaryocyte) formation, Giemsa staining ([2]; 3-OST-3-expressing CHO-K1 cells (FIG. 7D)) |
| --- | --- | --- | --- | --- |
| LRSRTKIIRIRH [G1, LRSRTKIIRIRH] | no effect on viral entry | – | – | – |
| MPRRRRIRRRQK [G2, MPRRRRIRRRQK] | effective in blocking CMV entry | substantial reduction of viral replication | very effective in blocking membrane fusion | loss of syncytia formation |
